17 molecules from patent US10000473B2, “Indazole derivatives useful as glucagon receptor antagonists” (Janssen Pharmaceutica NV, priority 2016, dated 2018) can be followed below.

The structures appear in SMILES notation.

The target of this experiment is T1, human GCGR (Homo sapiens, UniProt P47871).
T1 construct: expressed in transfected cells; host or cells: HEK293 (hGluc-1HEK), pcDNA3.1, G418 selection
T1 sequence (P47871 26-477): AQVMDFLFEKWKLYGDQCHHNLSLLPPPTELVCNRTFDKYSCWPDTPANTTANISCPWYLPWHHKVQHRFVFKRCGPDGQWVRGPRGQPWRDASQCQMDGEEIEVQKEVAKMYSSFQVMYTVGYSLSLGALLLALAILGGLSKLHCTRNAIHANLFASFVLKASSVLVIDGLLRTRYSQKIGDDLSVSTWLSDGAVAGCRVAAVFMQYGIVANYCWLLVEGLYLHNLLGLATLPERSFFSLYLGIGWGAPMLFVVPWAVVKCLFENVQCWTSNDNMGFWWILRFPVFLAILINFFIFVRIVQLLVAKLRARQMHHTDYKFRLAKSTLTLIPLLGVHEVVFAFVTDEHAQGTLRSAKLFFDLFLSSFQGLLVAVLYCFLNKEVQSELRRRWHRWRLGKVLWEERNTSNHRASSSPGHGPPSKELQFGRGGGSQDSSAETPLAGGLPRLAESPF
As to the kind of experiment: Cellular functional assay, cAMP readout (glucagon-stimulated cAMP, LANCE TR-FRET). It is filed as cell-based. Conditions: HEK293 cells stably expressing full-length human GCGR; glucagon 100 pM; IC50 converted to Ki; read-out: Inhibition of cAMP Ki. On the technique in general: TR-FRET usually uses a lanthanide donor and a delayed reading to cut background.
Broadly, the Ki is the equilibrium dissociation constant of an inhibitor or competing ligand from its target. Consider `O=C(O)CCNC(=O)c1ccc(C(CCC(F)(F)F)n2ncc3cc(-c4ccc(Cl)cc4Cl)ccc32)cc1` (centres unmarked) [Compound #112, 3-[[4-[1-[5-(2,4-Dichlorophenyl)indazol-1-yl]-4,4,4-trifluorobutyl]benzoyl]amino]propanoic acid], for which the Ki was determined as 0.41 µM.
With `CCCCCCC(c1ccc(C(=O)NCCC(=O)O)cc1)n1ncc2cc(-c3ccc(C(C)(C)C)cc3)ccc21` (centres unmarked) [compound 128], the Ki was determined as 0.199 µM.
For `CC(C)CCC(c1ccc(C(=O)NCCC(=O)O)cc1)n1ncc2cc(-c3ccc(C(C)(C)C)cc3)ccc21` (centres unmarked) [Compound #23, 3-(4-(1-(5-(4-(tert-Butyl)phenyl)-1H-indazol-1-yl)-4-methylpentyl)benzamido)propanoic acid], the Ki was 0.144 µM.
With `COc1c(-c2ccc(C(F)(F)F)cc2Cl)ccc2c1cnn2[C@@H](CC(C)C)c1ccc(C(=O)NCCC(=O)O)cc1` [Compound #201, 3-[[4-[(1S)-1-[5-[2-Chloro-4-(trifluoromethyl)phenyl]-4-methoxy-indazol-1-yl]-3-methyl-butyl]benzoyl]amino]propanoic acid], the Ki was determined as 0.03 µM.
Take `CC(C)CC(c1ccc(C(=O)NCCC(=O)O)cc1)n1ncc2cc(-c3ccc4ncccc4c3)ccc21` (centres unmarked) [Compound #7]: the Ki amounted to 0.8 µM.
As to `Cc1cc(C(F)(F)F)ccc1-c1cc2cn(C(CC(C)C)c3ccc(C(=O)NCCC(=O)O)nc3)nc2cc1C` (centres unmarked) [Compound #187, 3-[[5-[3-Methyl-1-[6-methyl-5-[2-methyl-4-(trifluoromethyl)phenyl]indazol-2-yl]butyl]pyridine-2-carbonyl]amino]propanoic acid], the inhibition constant (Ki) came to 0.03 µM.
In the case of `COc1c(-c2ccc(C(F)(F)F)cc2Cl)ccc2c1cnn2C(CC(C)C)c1ccc(C(=O)NCCC(=O)O)nc1` (centres unmarked) [Compound #250, 3-(5-(1-(5-(2-Chloro-4-(trifluoromethyl)phenyl)-4-methoxy-1H-indazol-1-yl)-3-methylbutyl)picolinamido)propanoic acid] it was 0.055 µM; in that of `O=C(O)CCNC(=O)c1ccc(C(CC2CCC2)n2ncc3cc(-c4ccc(C(F)(F)F)cc4)ccc32)cn1` (centres unmarked) [compound 251], 0.65 µM.
Then `CC(C)CC(c1ccc(C(=O)NCCC(=O)O)cc1)n1cc2cc(-c3ccsc3)ccc2n1` (centres unmarked) [compound 51], with 0.75 µM.
With `CCCCCCC(c1ccc(C(=O)NCCC(=O)O)cc1)n1ncc2cc(-c3ccc(Cl)cc3C)ccc21` (centres unmarked) [compound 245], the Ki turned out to be 0.21 µM.
With `CC(C)CC(c1ccc(C(=O)NCCC(=O)O)cc1)n1cc2cc(-c3ccc(C(F)(F)F)cc3Cl)ccc2n1` (centres unmarked) [Compound #225, 3-(4-(1-(5-(2-Chloro-4-(trifluoromethyl)phenyl)-2H-indazol-2-yl)-3-methylbutyl)benzamido)propanoic acid], the Ki came to 0.15 µM.
In the case of `CCCCCCC(c1ccc(C(=O)NCCC(=O)O)cc1)n1cc2cc(-c3ccc(C(C)(C)C)cc3)ccc2n1` (centres unmarked) [compound 86] it was 0.136 µM; in that of `O=C(O)CCNC(=O)c1ccc(C(CCC(F)(F)C(F)(F)F)n2cc3cc(-c4ccc(C(F)(F)F)cc4)ccc3n2)cc1` (centres unmarked) [compound 65], 0.24 µM.
For the molecule `CCCCCCC(c1ccc(C(=O)NCCC(=O)O)cc1)n1cc2cc(-c3ccc(Cl)cc3C)ccc2n1` (centres unmarked) [compound 204], the inhibition constant (Ki) came out at 0.021 µM.
As for `COc1c(-c2ccc(C(F)(F)F)cc2Cl)ccc2nn([C@@H](CC(C)C)c3ccc(C(=O)NCCC(=O)O)cc3)cc12` [Compound #150, 3-[[4-[(1S)-1-[5-[2-Chloro-4-(trifluoromethyl)phenyl]-4-methoxy-indazol-2-yl]-3-methyl-butyl]benzoyl]amino]propanoic acid], the inhibitory constant (Ki) is 0.035 µM.
Take `CC(C)CC(c1ccc(C(=O)NCCC(=O)O)cc1)n1cc2cc(-c3ccc4cnn(C)c4c3)ccc2n1` (centres unmarked) [compound 80]: the Ki came to 0.34 µM.
Take `CC(C)CC(c1ccc(C(=O)NCCC(=O)O)cc1)n1ncc2c(Cl)c(-c3ccc(C(F)(F)F)cc3)ccc21` (centres unmarked) [Compound #67, 3-(4-(1-(4-Chloro-5-(4-(trifluoromethyl)phenyl)-1H-indazol-1-yl)-3-methylbutyl)benzamido)propanoic acid]: the Ki is 0.245 µM.
